Reference: article PMC5321741, “Arylmethylamino steroids as antiparasitic agents” (Nature Communications, 2017)
Read-outs that look alike come from different tables or passages of the source.

What was measured:
[1] = spectrophotometric titration by Fe(III); type: physicochemical; conditions: 0.2 M HEPES pH 7.5 + DMSO (1:1 v/v), 25.0 °C
Description: Supplementary Figure 17. (left) Spectrophotometric titration of the substrates 1o and 2o by Cu(II) and Fe(III) and (right) electronic spectra of the free substrates and of corresponding metal complexes. Solvent: 0.2 M aqueous sodium HEPES buffer pH 7.5 + DMSO (1:1 v/v); T = 25.0 […]
were prepared in CH3CN (5 mM). Haematin and the substrates were mixed together in […]
The absorption spectrophotometric […]
each addition of the substrate. […]
spectrophotometric data with the Specfit program. The uncertainties on the log K values are given as 3σ with σ = standard deviation. Origin 7.0 was used to process the analytical

[2] = molecular target: T1, recombinant protein hGrx1-roGFP2 (Homo sapiens, UniProt P35754); test: in vitro interaction with recombinant redox probe; type: biochemical; conditions: 10 nM to 100 µM, 4 h and 24 h
T1 construct: made in house
Description: (2) Chromogenic precipitating substrates following a poly-condensation (so called “polymerization”) pathway, which is tuneable by utilizing metal catalytic effects via introduction of metal chelating groups.32-33 […]
Heterologous overexpression of hGrx1-roGFP2 and in vitro measurements with the recombinant protein were carried out as described45 with minor modifications. […] The emission of hGrx1-roGFP2 (510 nm) after excitation at 405 nm and 475 nm was measured in a plate reader (Clariostar, BMG Labtech) with optimal read settings. The ratio of the fluorescence […]
signals at 405/475 nm were calculated and plotted against time and/or concentration of compound 1o or redox active compounds. […]
100 µM for 4 h and 24 h incubations. Transfection of the Pf3D7 strain with the redox sensor was carried out, and the parasites were cultured as described under constant drug pressure with 5 nM WR99210 (Jacobus Pharmaceuticals, New Jersey, USA).45,46 P. falciparum trophozoites were enriched via magnet separation.47 Parasitemia was counted by using Giemsa-stained blood smears. […] (6-8% parasitemia) were magnetically enriched (Miltenyi Biotec, Germany), counted by using the improved Neubauer hemocytometer (Brand GmbH, Germany), and returned to cell culture (at 0.5 x 10^6 trophozoites/µl) for at least 1 h to recover. […]

[3] = plasma protein binding (rapid equilibrium dialysis); type: in vitro ADME; conditions: read-out: Plasma Protein Binding % bound (converted)
Description: Pharmacokinetic data were obtained for compound 1o at the Sanford-Burnham Medical Research Institute according to established procedures. Compound solubility in an aqueous solution was measured using an automated kinetic solubility method. The concentration of the compound in a saturated pH-buffered aqueous solution was determined via UV absorbance (250–498 nm) and compared with the spectra of a precipitation-free reference solution. The plasma stability of the compound was determined at a single concentration using species-specific plasma. The percentage of parent compound remaining after 3 h was determined via LC-MS/MS. The percentage of compound 1o bound to plasma proteins was determined through rapid equilibrium dialysis and quantified via LC-MS/MS. Metabolic stability of the compound was determined at a single concentration using species-specific liver microsomes that contained cytochrome P450s, flavin-monooxygenases, carboxyl-esterases, epoxide hydrolases, and other drug-metabolizing enzymes. The quantification was carried out via LC-MS/MS. Membrane permeability of compound 1o was measured using an in vitro model for the passive transport from the gastrointestinal tract into the blood system. A double-sink parallel artificial membrane permeability assay PAMPA, in a 96-well format was employed.

For `COc1ccc2c(c1)CCC1C2CC[C@@]2(C)C1CC[C@@H]2NCc1cc2ccccc2cc1O` (stereo partly drawn) [2o], the “log K2o.Fe” value [1] was 4.3.
With `COc1ccc2c(c1)CCC1C2CC[C@@]2(C)C1CC[C@H]2NCc1cc2ccccc2cc1O` (stereo partly drawn) [1o] the “direct interaction with recombinant hGrx1-roGFP2” value [2] was “No direct interaction was detected”, the fraction unbound at 1 µM ([3]; Human) was 0.0087 and the fraction unbound at 10 µM ([3]; Human) was 0.0094. It also gave a fraction unbound at 1 µM ([3]; Mouse) of 0.0094 and a fraction unbound at 10 µM ([3]; Mouse) of 0.0107.
